Source: paper PMC6435586 (Frontiers in Pharmacology, 2019)
Where no end group is shown, it is not given here.

Assay: Serum stability assay
Type: in vitro ADME, human
Conditions: peptide 6.6 μM
Description: The serum stability of the peptides was tested using human male serum (Sigma, USA), as previously described ([Chan et al., 2011]). All peptides were tested at a final concentration of 6.6 μM after dilution from a stock solution at 200 μM. The serum was centrifuged at 17,000g for 10 min to remove the lipid component, and the supernatant incubated at 37°C for 15 min, prior to conducting the assay. The peptides were incubated in serum or phosphate-buffered saline (PBS) at 37°C, and aliquots were taken at 0, 3, 8, and 24 h (40-μl aliquots were taken in triplicate). The aliquots of serum were quenched with 40 μl of 6 M urea and incubated for 10 min at 4°C. The aliquots were then quenched with 40 μl of 20% trichloroacetic acid (TCA) and incubated for another 10 min at 4°C to precipitate serum proteins. Finally, samples were centrifuged at 17,000g for 10 min, and 90 μl of the supernatant was analyzed on reversed-phase HPLC using a Phenomenex Jupiter Proteo C12 analytical column (150 mm × 2.00 mm, 4 μm, 90 Å, Phenomenex, Torrance, CA, USA) and a linear gradient of solvent B [90% acetonitrile/10% H2O, 0.045% trifluoroacetic acid (TFA)] at a flow rate of 0.4 ml/min using an Agilent 1260 Infinity system (Agilent Technologies, Hanover, Germany). The control samples contained equivalent amounts of the peptides in PBS and were subjected to the same treatment procedure. The stability at each time point was calculated based on the area of the RP-HPLC peaks following incubation with serum at 214 nm as a percentage of the area of 0-h serum-treated peptides ([Chan et al., 2013]).

Substance: MAMPAFTTDH-NH2 [CTX-1]
- detection of peptide in human serum over time (human male serum, 37°C, 24 h, RP-HPLC at 214 nm): could be detected up to 24 h
- remaining at 8 h, 6.6 μM (lipid component removed by centrifugation, human male serum (lipid removed by centrifugation, pre-incubated 15 min at 37°C), 8 h, RP-HPLC C12 peak area at 214 nm as % of 0-h serum-treated peptide, triplicate, mean, read-out: peptide remaining at the 8-h time point in human serum): > 18%

Substance: QMARKADDAAG-NH2 [CTX-2]
- relative stability in human serum among the fragments (in words) (human male serum, 37°C, 0-24 h, RP-HPLC at 214 nm): most stable of the peptides tested

Substance: YGPQALAR-NH2 [CTX-4]
- remaining at 3 h, 6.6 μM (lipid component removed by centrifugation, human male serum (lipid removed by centrifugation, pre-incubated 15 min at 37°C), 3 h, RP-HPLC C12 peak area at 214 nm as % of 0-h serum-treated peptide, triplicate, mean, read-out: peptide remaining after 3 h in human serum): < 10%
